Experimental data reported in patent US10058587B2, “Peptide composition for cancer treatment by inhibiting TRPV6 calcium channel activity” (priority 2008, dated 2018).
Entries after “also recorded” stand apart in the source; their conditions may differ. Where no end group is shown, it is not given here.

Experiments:
[1] = tested on: MDA-MB-468 (MB 468) breast cancer cell line; assay: Induction of apoptosis (APO-ONE caspase 3/7) and cell viability (CellTiter Blue); assay type: cell-based, human; set-up: key: cell viability decreased (+); or not (−)
Description: (§1) MCF-7, MDA-MB-231, MDA-MB-415, MDA-MB-468 were grown in DMEM modified with 10% (v/v) fetal bovine serum, 2 mM L-glutamine and 50 ug/mL each of penicillin and streptomycin.
(§2) The levels of apoptotic induction and cell viability were determined by multiplexing the measurements for single samples. CellTiter Blue and APO-ONE assay systems from Promega allows the determination of cell viability correlated to cell number, and induction of apoptosis. This protocol uses a fluorgenic peptide that contains a peptide recognition-sequence for caspase 3 and caspase 7, […] proteolytic enzymes of the apoptosis cascade. The CellTiter Blue reagent was added to wells in a 96-well plate containing cells under test, immediately after addition of peptide solution or vehicle. About 5000 cells were plated into the wells the day before. At the chosen time (Day 1, Day 2 etc.) the fluorescence was measured at 590 nm (emission) after excitation at 560 nm. The caspase 3/7 activity was measured (485 nm Ex/527 nm Em) in the same wells after adding 120 uL of the Apo-ONE reagent, freeze fracturing at −80° C. for 1 hr, and incubating for 1 hr at room temperature.
(§3) For this work, the concentrations of SorC13 and SorC27 used were 0 uM, 1 uM, 10 uM and 100 uM. The experiments extended over a 5 to 7 day period. All measurements were done in quadruplicate with both a blank (no cells) and control (vehicle, no peptide) used to correct the test measurements. The time-response data, and the dose-response data were plotted as means±standard error of the mean. Any statistical comparisons were done with the Student's t-test or by ANOVA analysis over the dose course. The level of statistical significance was considered to be the 95% confidence interval (i.e., p≤0.05).

[2] = Degradation rate in rat plasma (HPLC); assay type: in vitro ADME
Description: Rat plasma was obtained from blood taken from sacrificed rats (Sprague-Dawley) and placed into heparinized glass vials to prevent clotting. Whole blood was centrifuged at 8000×g for 5 minutes to spin down the cells leaving the plasma as supernatant. Human whole blood samples from healthy humans were taken in lithium-heparinized vacuum tubes. The samples were placed into 2.0 mL microcentrifuge tubes and centrifuged at 8000×g for 5 min. The plasma was carefully separated from red blood cells and used immediately.
Determination of degradation rate of the C-peptides was done by measuring, with the HPLC protocol, the amount of either SorC13 or SorC27 in dosed plasma samples, after time. Sample tubes (500 uL) containing 2 uL of 2 mM Pefabloc were previously prepared for sample delivery SorC13 (1.0 mg) or SorC27 (2.0 mg) were dissolved in 1.0 mL of fresh plasma (37° C.) and placed in an incubating water bath at 37° C. A sample (100 uL) was taken immediately and quenched in sample tubes containing 2 uL of 2 mM Pefabloc, mixed vigorously and immediately frozen at −80° C. This initial sample represented time zero for the run. At successive time intervals of 5 minutes, 100 uL samples were withdrawn, quenched in Pefabloc, mixed, and frozen at −80° C. until analysis.
The rat plasma degradation rate was determined for the plasma from three different rats, while the rate of degradation in human plasma used six separate plasma samples. The data used were the means (±SEM) and were fitted to a simple one-phase exponential decay model to determine the half-life of the two peptides. This also allowed the calculation of a static degradation rate. FIG. 11 is illustrative of the rate at which SorC27 was degraded in human plasma.

[3] = Repeated dose toxicity study; assay type: in vivo, NOD/SCID mice
Description: In order to investigate repeated dose toxicity, SorC27 at 400 mg/kg formulated in saline was injected (i.p.) into NOD/SCID mice every day for 12 days. The animals were observed cage-side each day and examined at the end of the experimental period.

[4] = tested on: HEY C2 ovarian cancer cell line; assay: Induction of apoptosis (APO-ONE caspase 3/7) and cell viability (CellTiter Blue); assay type: cell-based, human; set-up: key to Decline in cell viability: decreased (+); or not (−)
Description: HeyC2 was cultured in RPMI 1640 medium supplemented with 1.0 mM sodium pyruvate, 0.01 mg/mL insulin and 10% (v/v) fetal bovine serum.
as §2, §3

[5] = Tissue distribution of Cy5.5-labeled peptides by optical imaging; assay type: in vivo, CD1 mice
Description: SorC13 and SorC27 were labeled with the near-infrared probe, Cy5.5. SorC13 was labeled at lysine-1 and lysine-8 with the infrared fluorescent probe cy5.5 through reaction with Cy5.5 NHS ester-activated process. SorC27 was labeled at the single cysteine thiol with Cy5.5 maleamide-activated reaction. The labeled peptides were purified with a combination of size exclusion chromatography and HPLC. The label, Cy5.5, fluoresces in the infra-red region after excitation with a scanning laser. The low energy laser is able to penetrate the animal to about 1 cm and, thus, by scanning prone and supine positions, the presence of the tagged peptides can be quantified in three dimensions.
Cy5.5-labeled peptides were intravenously injected into CD1 mice (4 for each compound) at 100 ug per animal in 100 uL, and animals were imaged live using an optical imaging system, Optix eXplorer (GE Healthcare Systems) at different time points (30 min, 90 min, 4 h). […] The bio-distribution of the labeled peptides in different organs and tissues were visualized and relatively quantified by optical imaging analysis. This protocol allows for visualization of the location of the labeled peptides and how the location changes over time. […] Nodes that accumulated the labeled peptides are indicated by line 1 (superfacial cervical nodes), line 4 (axillary nodes), line 5 (brachial nodes), line 8 (mesenteric nodes) and line 9 (inguinal nodes). FIGS. 8, 9 and 10 show the amounts of labeled peptides in various organs ex vivo.

[6] = Solubility (aqueous); conditions: aqueous
[7] = tested on: MDA-MB-468 (MB 468) breast cancer cell line; assay: Induction of apoptosis (APO-ONE caspase 3/7) and cell viability (CellTiter Blue); assay type: cell-based, human; set-up: key: decreased (+); or not (−); conditions: SorC27
Description: as §1, §2
(§4) For this work, the concentrations of SorC13 and SorC27 used were 0 uM, 1 uM, 10 uM and 100 uM. The experiments extended over a 5 to 7 day period. […]

[8] = tested on: MCF 7 breast cancer cell line; assay: as above; assay type: cell-based, human; set-up: key: decreased (+); or not (−); conditions: SorC27
Description: as §1, §2, §4

[9] = 400 mg/kg, daily i.p. injection for 12 days

Row | Sequence | Decline in cell viability ([1]; SorC13 1 uM) | Decline in cell viability ([1]; SorC13 10 uM) | Decline in cell viability ([1]; SorC13 100 uM) | half-life ([2]; Sprague-Dawley, rat, plasma, 37° C.) | binding to plasma proteins ([2]; rat plasma) | toxicity of multiple dose ([3]; 400 mg/kg i.p. each day for 12 days) | Repeated dose in NOD/SCID mice: body weight [3, 9] | Repeated dose in NOD/SCID mice: toxic effects [3, 9] | Apoptosis Index (1 = no effect) ([4]; Day 6, SorC27 100 uM) | Apoptosis Index (1 = no effect) ([4]; Day 7, SorC27 10 uM) | Apoptosis Index (1 = no effect) ([4]; Day 7, SorC27 100 uM) | Decline in cell viability ([4]; SorC27) | detectable in tissues after perfusion ([5]; Cy5.5-tagged peptide, 24 hours) | tissue localization ([5]; Cy5.5-tagged peptide, i.v. 100 ug) | tissues with highest percent uptake (of total fluorescence) after perfusion ([5]; Cy5.5 labeled, 4 and 24 hours after i.v. injection) | solubility [6] | Decline in cell viability [7] | Decline in cell viability [8]
1 | KEFLHPSKVDLPR [SorC13, KEFLHPSKVDLPR] | + | + | + |  |  |  |  |  |  |  |  |  |  |  |  |  |  | 
2 | EGKLSSNDTEGGLCKEFLHPSKVDLPR [SorC27] |  |  |  | 21 min | doesn't bind to | no indication of toxicity; also recorded: no toxic effect, weight loss or change in organs on necropsy | No loss of body weight | no toxic effects noted | 1.4 | 2.2 | 2.8 | + | still detectable | localize predominantly in lymph nodes, lung, liver and kidney | liver, lung and kidney | > 200 mg/mL | + | +
